Assay results: PubChem BioAssay AID651879 (NMMLSC, 2012)
Activity calls are given as the source filed them. How the calls were made is not given here.

The compounds below were run against Botulinum neurotoxin type A light chain protease (Clostridium botulinum A str. ATCC 3502) (assay: Botulinum neurotoxin type A light chain protease inhibitors, multiplex microsphere dose response, confirmatory (AID 651879)). Settings: multiplex microsphere protease cleavage assay, flow cytometry.

Row | SMILES | EC50
1 | CSc1ccc(C2=NN(c3ccc(S(C)(=O)=O)cc3)C(c3ccccc3)C2)cc1 (centres undefined) | > 20 µM (inactive)
2 | CS(=O)(=O)c1ccc(N2N=C(c3ccccc3)CC2c2ccccc2)cc1 (centres undefined) | > 20 µM (inactive)
3 | CSc1ccc(C2=NN(c3ccc(C(=O)N4CCCCC4)cc3)C(c3ccccc3)C2)cc1 (centres undefined) | > 20 µM (inactive)
4 | NS(=O)(=O)c1ccc(N2N=C(c3ccccc3)CC2c2ccccc2)cc1 (centres undefined) | > 20 µM (inactive)
5 | CNC(=O)c1ccc(N2N=C(c3ccccc3)CC2c2ccccc2)cc1 (centres undefined) | > 20 µM (inactive)
6 | CC(C)CNC(=O)c1ccc(N2N=C(c3ccccc3)CC2c2ccccc2)cc1 (centres undefined) | > 20 µM (inactive)
7 | COc1ccc(N2N=C(c3ccncc3)CC2c2ccccc2)cc1 (centres undefined) | > 20 µM (inactive)
8 | CS(=O)(=O)c1ccc(N2N=C(c3cccnc3)CC2c2ccccc2)cc1 (centres undefined) | > 20 µM (inactive)
9 | O=C(c1ccc(N2N=C(c3ccccc3)CC2c2ccccc2)cc1)N1CCCCC1 (centres undefined) | > 20 µM (inactive)
10 | CS(=O)(=O)c1ccc(N2N=C(c3ccncc3)CC2c2ccccc2)cc1 (centres undefined) | > 20 µM (inactive)
11 | NS(=O)(=O)c1ccc(N2N=C(c3cccnc3)CC2c2ccccc2)cc1 (centres undefined) | > 20 µM (inactive)
12 | c1ccc(-c2cc(-c3ccccc3)n(-c3ccccc3)n2)cc1 | > 20 µM (inactive)
13 | CSc1ccc(C2=NN(c3ccc(S(N)(=O)=O)cc3)C(c3ccccc3)C2)cc1 (centres undefined) | > 20 µM (inactive)
14 | CSc1ccc(C2=NN(c3ccc(C(=O)N4CCOCC4)cc3)C(c3ccccc3)C2)cc1 (centres undefined) | > 20 µM (inactive)
15 | COc1ccc(N2N=C(c3ccccc3)CC2c2ccccc2)cc1 (centres undefined) | > 20 µM (inactive)
16 | CNC(=O)c1ccc(N2N=C(c3ccc(SC)cc3)CC2c2ccccc2)cc1 (centres undefined) | > 20 µM (inactive)
17 | c1ccc(C2=NN(c3ccccc3)C(c3ccccc3)C2)cc1 (centres undefined) | > 20 µM (inactive)
18 | O=[N+]([O-])c1ccc(N2N=C(c3ccccc3)CC2c2ccccc2)cc1 (centres undefined) | > 20 µM (inactive)
19 | COc1ccc(N2N=C(c3ccccn3)CC2c2ccccc2)cc1 (centres undefined) | > 20 µM (inactive)
20 | CSc1ccc(C2=NN(c3ccc([N+](=O)[O-])cc3)C(c3ccccc3)C2)cc1 (centres undefined) | 0.5 µM
21 | c1ccc(C2CC(c3cccnc3)=NN2c2ccccc2)cc1 (centres undefined) | > 20 µM (inactive)
22 | c1ccc(C2CC(c3ccccn3)=NN2c2ccccc2)cc1 (centres undefined) | > 20 µM (inactive)
23 | CC(C)NC(=O)c1ccc(N2N=C(c3ccccc3)CC2c2ccccc2)cc1 (centres undefined) | > 20 µM (inactive)
24 | CSc1ccc(C2=NN(c3ccccc3)C(c3ccccc3)C2)cc1 (centres undefined) | > 20 µM (inactive)
25 | COc1ccc(N2N=C(c3ccc(SC)cc3)CC2c2ccccc2)cc1 (centres undefined) | > 20 µM (inactive)
26 | O=C(c1ccc(N2N=C(c3ccccc3)CC2c2ccccc2)cc1)N1CCOCC1 (centres undefined) | > 20 µM (inactive)
27 | COc1ccc(N2N=C(c3cccnc3)CC2c2ccccc2)cc1 (centres undefined) | > 20 µM (inactive)
28 | c1ccc(C2CC(c3ccncc3)=NN2c2ccccc2)cc1 (centres undefined) | > 20 µM (inactive)
29 | NS(=O)(=O)c1ccc(N2N=C(c3ccncc3)CC2c2ccccc2)cc1 (centres undefined) | > 20 µM (inactive)
